Experimental data published in ChEMBL document CHEMBL5579889, “Structure-Based Design and Development of Phosphine Oxides as a Novel Chemotype for Antibiotics that Dysregulate Bacterial ClpP Proteases” (J Med Chem, 2024).
≈ marks a conversion by molar mass, not a printed value. Calls of active or inactive are those of the source. The rule behind the calls is not given here.

Key:
[1] = biological target: T1, ATP-dependent Clp protease proteolytic subunit (Escherichia coli (strain K12), UniProt P0A6G7); test: Activation of N-terminal His-tagged recombinant Escherichia coli ClpP expressed in Escherichia coli SG1146(DE3) assessed as degradation of casein-FITC preincubated for 10 mins followed by casein addition measured for over 100 mins by fluorescence based assay
T1 sequence (P0A6G7 whole entry): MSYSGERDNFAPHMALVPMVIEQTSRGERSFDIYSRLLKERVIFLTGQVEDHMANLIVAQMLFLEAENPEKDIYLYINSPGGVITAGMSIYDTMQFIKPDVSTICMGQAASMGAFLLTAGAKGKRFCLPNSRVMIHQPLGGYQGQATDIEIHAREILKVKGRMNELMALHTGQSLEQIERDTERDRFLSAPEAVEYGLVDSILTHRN

Neisseria gonorrhoeae [2] = test: Antibacterial activity against Neisseria gonorrhoeae WHO X measured after 16 to 18 hrs by OD based assay; type: functional; details: time 16-18 hrs
Neisseria gonorrhoeae [3] = test: Antibacterial activity against Neisseria gonorrhoeae WHO N measured after 16 to 18 hrs by OD based assay; type: functional; details: time 16-18 hrs
[4] = biological target: T2, ATP-dependent Clp protease proteolytic subunit (Staphylococcus aureus (strain NCTC 8325)) (UniProt Q2G036); test: Activation of N-terminal His-tagged recombinant Staphylococcus aureus ClpP expressed in Escherichia coli SG1146(DE3) assessed as degradation of casein-FITC at 100 uM preincubated for 10 mins followed by casein addition measured for over 100 mins by fluorescence based assay; details: time > 110.0 min
T2 sequence (whole entry): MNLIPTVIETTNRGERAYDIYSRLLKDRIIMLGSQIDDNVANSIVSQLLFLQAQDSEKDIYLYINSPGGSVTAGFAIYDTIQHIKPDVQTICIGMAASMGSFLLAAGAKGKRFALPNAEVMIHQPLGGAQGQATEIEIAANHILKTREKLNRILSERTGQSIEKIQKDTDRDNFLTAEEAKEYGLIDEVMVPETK

Neisseria meningitidis [5] = test: Antibacterial activity against Neisseria meningitidis EG329 measured after 16 to 18 hrs by OD based assay; type: functional; details: time 16-18 hrs
[6] = biological target: T1, ATP-dependent Clp protease proteolytic subunit; test: Binding affinity to His-tagged recombinant Escherichia coli ClpP extracted from Escherichia coli SG1146(DE3) using casein as substrate assessed as apparent dissociation constant incubated upto 120 mins by SDS-PAGE analysis; details: read-out: Kd(app)
Neisseria gonorrhoeae [7] = test: Antibacterial activity against Neisseria gonorrhoeae WHO Y measured after 16 to 18 hrs by OD based assay; type: functional; details: time 16-18 hrs
[8] = biological target: T3, ATP-dependent Clp protease proteolytic subunit (Neisseria gonorrhoeae, UniProt Q5F914); test: Binding affinity to His-tagged recombinant Neisseria gonorrhoeae ClpP extracted from Escherichia coli SG1146(DE3) using casein as substrate assessed as apparent dissociation constant incubated upto 120 mins by SDS-PAGE analysis; details: read-out: Kd(app)
T3 sequence (Q5F914 whole entry): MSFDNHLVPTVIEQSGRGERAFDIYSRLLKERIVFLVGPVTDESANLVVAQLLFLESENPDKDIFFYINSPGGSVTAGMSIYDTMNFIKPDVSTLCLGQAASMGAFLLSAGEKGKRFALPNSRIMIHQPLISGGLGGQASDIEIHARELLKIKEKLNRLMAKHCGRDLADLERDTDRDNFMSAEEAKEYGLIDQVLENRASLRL

[9] = Cytotoxicity against wild-type HEK293-T-REx cells assessed as cell viability upto 100 uM incubated for 3 days by AlamarBlue assay; type: toxicity, cell-based; details: human, 72 h, time 3 day
Neisseria meningitidis [10] = test: Antibacterial activity against Neisseria meningitidis BZ133 measured after 16 to 18 hrs by OD based assay; type: functional; details: time 16-18 hrs
Neisseria meningitidis [11] = test: Antibacterial activity against Neisseria meningitidis 88/03415 measured after 16 to 18 hrs by OD based assay; type: functional; details: time 16-18 hrs
Neisseria gonorrhoeae [12] = test: Antibacterial activity against Neisseria gonorrhoeae WHO M measured after 16 to 18 hrs by OD based assay; type: functional; details: time 16-18 hrs
Neisseria meningitidis [13] = test: Antibacterial activity against Neisseria meningitidis H44/76 harboring deltaclpP measured after 16 to 18 hrs by OD based assay; type: functional; details: time 16-18 hrs
[14] = biological target: T3, ATP-dependent Clp protease proteolytic subunit; test: Activation of N-terminal His-tagged recombinant Neisseria gonorrhoeae ClpP expressed in Escherichia coli SG1146(DE3) assessed as degradation of casein-FITC preincubated for 10 mins followed by casein addition measured for over 100 mins by fluorescence based assay
Neisseria gonorrhoeae [15] = test: Antibacterial activity against Neisseria gonorrhoeae WHO Z measured after 16 to 18 hrs by OD based assay; type: functional; details: time 16-18 hrs
Streptococcus pneumoniae = test: Activation of recombinant Streptococcus pneumoniae ClpP extracted from Escherichia coli SG1146(DE3) assessed as degradation of casein-FITC at 100 uM preincubated for 10 mins followed by casein addition measured for over 100 mins by fluorescence based assay; details: time > 110.0 min
Neisseria meningitidis [16] = test: Antibacterial activity against Neisseria meningitidis AK50 measured after 16 to 18 hrs by OD based assay; type: functional; details: time 16-18 hrs
Neisseria meningitidis [17] = test: Antibacterial activity against Neisseria meningitidis NG144/82 measured after 16 to 18 hrs by OD based assay; type: functional; details: time 16-18 hrs
Neisseria meningitidis [18] = test: Antibacterial activity against Neisseria meningitidis SWZ107 measured after 16 to 18 hrs by OD based assay; type: functional; details: time 16-18 hrs
Neisseria meningitidis [19] = test: Antibacterial activity against Neisseria meningitidis BZ169 measured after 16 to 18 hrs by OD based assay; type: functional; details: time 16-18 hrs
Neisseria meningitidis [20] = test: Antibacterial activity against Neisseria meningitidis NGF26 measured after 16 to 18 hrs by OD based assay; type: functional; details: time 16-18 hrs
Neisseria gonorrhoeae [21] = test: Antibacterial activity against Neisseria gonorrhoeae WHO L measured after 16 to 18 hrs by OD based assay; type: functional; details: time 16-18 hrs
Neisseria gonorrhoeae [22] = test: Antibacterial activity against Neisseria gonorrhoeae WHO P measured after 16 to 18 hrs by OD based assay; type: functional; details: time 16-18 hrs
Neisseria gonorrhoeae [23] = test: Antibacterial activity against Neisseria gonorrhoeae WHO G measured after 16 to 18 hrs by OD based assay; type: functional; details: time 16-18 hrs
Neisseria gonorrhoeae [24] = test: Antibacterial activity against Neisseria gonorrhoeae WHO K measured after 16 to 18 hrs by OD based assay; type: functional; details: time 16-18 hrs
Neisseria gonorrhoeae [25] = test: Antibacterial activity against Neisseria gonorrhoeae FA19 measured after 16 to 18 hrs by OD based assay; type: functional; details: time 16-18 hrs
Neisseria gonorrhoeae [26] = test: Antibacterial activity against Neisseria gonorrhoeae MS11 measured after 16 to 18 hrs by OD based assay; type: functional; details: time 16-18 hrs
Neisseria gonorrhoeae [27] = test: Antibacterial activity against Neisseria gonorrhoeae WHO V measured after 16 to 18 hrs by OD based assay; type: functional; details: time 16-18 hrs
[28] = biological target: ATP-dependent Clp protease proteolytic subunit, mitochondrial (Homo sapiens) (UniProt Q16740); test: Activation of N-terminal His-tagged recombinant human ClpP expressed in Escherichia coli SG1146(DE3) assessed as degradation of casein-FITC at 100 uM preincubated for 10 mins followed by casein addition measured for over 100 mins by fluorescence based assay; details: time > 110.0 min
Chain of ATP-dependent Clp protease proteolytic subunit, mitochondrial (Homo sapiens) (Q16740 whole entry): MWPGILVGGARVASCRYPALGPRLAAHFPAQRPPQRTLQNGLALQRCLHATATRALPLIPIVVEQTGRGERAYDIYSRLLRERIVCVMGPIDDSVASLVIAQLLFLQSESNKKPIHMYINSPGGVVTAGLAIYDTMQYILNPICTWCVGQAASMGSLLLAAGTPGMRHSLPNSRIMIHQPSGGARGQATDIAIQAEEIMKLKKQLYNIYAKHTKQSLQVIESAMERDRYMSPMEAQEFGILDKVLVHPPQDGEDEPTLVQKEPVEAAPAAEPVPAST

Neisseria meningitidis [29] = test: Antibacterial activity against Neisseria meningitidis NGPB24 measured after 16 to 18 hrs by OD based assay; type: functional; details: time 16-18 hrs
Neisseria meningitidis [30] = test: Antibacterial activity against wild-type Neisseria meningitidis H44/76 measured after 16 to 18 hrs by OD based assay; type: functional; details: time 16-18 hrs

EC50 [1] [nM] | EC50 [14] [nM] | Activity [28] | SMILES | MIC (Neisseria gonorrhoeae [2]) [µM] | MIC (Neisseria gonorrhoeae [3]) [µM] | Activity [4] | MIC (Neisseria meningitidis [5]) [µM] | MIC (Neisseria gonorrhoeae [7]) [µM] | MIC (Neisseria meningitidis [10]) [µM] | MIC (Neisseria meningitidis [11]) [µM] | MIC (Neisseria gonorrhoeae [12]) [µM] | MIC (Neisseria meningitidis [13]) [µM] | MIC (Neisseria gonorrhoeae [15]) [µM] | Activity (Streptococcus pneumoniae) | MIC (Neisseria meningitidis [16]) [µM] | MIC (Neisseria meningitidis [17]) [µM] | MIC (Neisseria meningitidis [18]) [µM] | MIC (Neisseria meningitidis [19]) [µM] | MIC (Neisseria meningitidis [20]) [µM] | MIC (Neisseria gonorrhoeae [21]) [µM] | other results
4770 | 1580 |  | CC(C)(C(=O)NCCSc1ccccc1Cl)P(=O)(c1ccc(C(F)(F)F)cc1)c1ccc(C(F)(F)F)cc1 |  |  |  |  |  |  |  |  |  |  |  |  |  |  |  |  |  | 
 |  | inactive | CC(C(=O)NCCSc1ccccc1C(F)(F)F)P(=O)(c1ccccn1)c1ccccn1 (stereo unspecified) |  |  | inactive |  |  |  |  |  |  |  | inactive |  |  |  |  |  |  | 
 |  |  | CC(C(=O)NCCSc1ccccc1Cl)P(=O)(c1ccccc1)c1ccccc1 (stereo unspecified) | 4.7 (≈ 2.09 µg/mL) | 1.6 (≈ 0.71 µg/mL) |  | 1.7 (≈ 0.755 µg/mL) | 12.5 (≈ 5.55 µg/mL) | 2.4 (≈ 1.07 µg/mL) | 1.6 (≈ 0.71 µg/mL) | 1.6 (≈ 0.71 µg/mL) | > 25 | 1.6 (≈ 0.71 µg/mL) |  | 4.7 (≈ 2.09 µg/mL) | 0.3 (≈ 0.133 µg/mL) | 0.3 (≈ 0.133 µg/mL) | 1 (≈ 0.444 µg/mL) | 1.6 (≈ 0.71 µg/mL) | 3.1 (≈ 1.38 µg/mL) | MIC (Neisseria gonorrhoeae [22]): 3.1 µM (≈ 1.38 µg/mL); MIC (Neisseria gonorrhoeae [23]): 1.6 µM (≈ 0.71 µg/mL); MIC (Neisseria gonorrhoeae [24]): 1.6 µM (≈ 0.71 µg/mL); MIC (Neisseria gonorrhoeae [25]): 3.1 µM (≈ 1.38 µg/mL); MIC (Neisseria gonorrhoeae [26]): 3.1 µM (≈ 1.38 µg/mL); MIC (Neisseria gonorrhoeae [27]): 3.1 µM (≈ 1.38 µg/mL); MIC (Neisseria meningitidis [29]): 3.1 µM (≈ 1.38 µg/mL); MIC (Neisseria meningitidis [30]): 1 µM (≈ 0.444 µg/mL)
 |  |  | CCCC/C=C/C(=O)N[C@@H](Cc1ccccc1)C(=O)N[C@H]1COC(=O)[C@@H]2CCCN2C(=O)[C@H](C)NC(=O)[C@@H]2CCCCN2C(=O)[C@@H]2CCCN2C1=O |  |  | inactive |  |  |  |  |  |  |  | inactive |  |  |  |  |  |  | 
2050 | 2750 | inactive | CC(C(=O)NCCSc1ccccc1C(F)(F)F)P(=O)(c1ccc(C(F)(F)F)cn1)c1ccc(C(F)(F)F)cn1 (stereo unspecified) |  |  | inactive |  |  |  |  |  |  |  | inactive |  |  |  |  |  |  | 

SMILES | EC50 [1] [nM] | EC50 [14] [nM] | Activity [28] | MIC (Neisseria gonorrhoeae [2]) [µM] | MIC (Neisseria gonorrhoeae [3]) [µM] | Activity [4] | MIC (Neisseria meningitidis [5]) [µM] | MIC (Neisseria gonorrhoeae [7]) [µM] | MIC (Neisseria meningitidis [10]) [µM] | MIC (Neisseria meningitidis [11]) [µM] | MIC (Neisseria gonorrhoeae [12]) [µM] | MIC (Neisseria meningitidis [13]) [µM] | MIC (Neisseria gonorrhoeae [15]) [µM] | Activity (Streptococcus pneumoniae) | MIC (Neisseria meningitidis [16]) [µM] | MIC (Neisseria meningitidis [17]) [µM] | MIC (Neisseria meningitidis [18]) [µM] | MIC (Neisseria meningitidis [19]) [µM] | MIC (Neisseria meningitidis [20]) [µM] | MIC (Neisseria gonorrhoeae [21]) [µM] | other results
CC(C)(C(=O)NCCSc1ccccc1C(F)(F)F)P(=O)(c1ccc(C(F)(F)F)cn1)c1ccc(C(F)(F)F)cn1 | 200 | 160 | inactive | 1.6 (≈ 1.01 µg/mL) | 1.6 (≈ 1.01 µg/mL) | inactive | 13.8 (≈ 8.69 µg/mL) | 3.1 (≈ 1.95 µg/mL) | 25 (≈ 15.7 µg/mL) | 18.8 (≈ 11.8 µg/mL) | 1.6 (≈ 1.01 µg/mL) | 3.1 (≈ 1.95 µg/mL) | 2.4 (≈ 1.51 µg/mL) | inactive | 50 (≈ 31.5 µg/mL) | 18.8 (≈ 11.8 µg/mL) | 123 (≈ 77.4 µg/mL) | 18.8 (≈ 11.8 µg/mL) | 18.8 (≈ 11.8 µg/mL) | 1.6 (≈ 1.01 µg/mL) | Kd [6]: 270 nM; Kd [8]: 690 nM; Activity [9]: Non-Toxic; MIC (Neisseria gonorrhoeae [22]): 1.6 µM (≈ 1.01 µg/mL); MIC (Neisseria gonorrhoeae [23]): 1.6 µM (≈ 1.01 µg/mL); MIC (Neisseria gonorrhoeae [24]): 1.6 µM (≈ 1.01 µg/mL); MIC (Neisseria gonorrhoeae [25]): 1.6 µM (≈ 1.01 µg/mL); MIC (Neisseria gonorrhoeae [26]): 1.6 µM (≈ 1.01 µg/mL); MIC (Neisseria gonorrhoeae [27]): 3.1 µM (≈ 1.95 µg/mL); MIC (Neisseria meningitidis [29]): 25 µM (≈ 15.7 µg/mL); MIC (Neisseria meningitidis [30]): 0.3 µM (≈ 0.189 µg/mL)
